Results reported in ChEMBL document CHEMBL1201862, “PubChem BioAssay data set” (2004).
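Step 1: Grow cells in 96-well plates. Step 2: Expose to compound for 48 hours at 5 concentrations. Step 3: Interpolate endpoints linearly; if unreached, use highest concentration. Abbreviation: GI50, concentration required for 50% inhibition of growth.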 Activity calls are given as the source filed them. No stated cut-off is given here; in the data, active = GI50 up to about 1.1 µM and inactive = higher.

How the values were obtained:
Experiment in all cases: NCI anticancer screen, dose series, 48 h
[1] = tested on: RPMI-8226
[2] = tested on: TK-10
[3] = tested on: CCRF-CEM
[4] = tested on: DU-145
[5] = tested on: Malme-3M
[6] = tested on: SK-MEL-2
[7] = tested on: SNB-75
[8] = tested on: NCI-H522
[9] = tested on: OVCAR-4
[10] = tested on: NCI-H226
[11] = tested on: SK-MEL-28
[12] = tested on: PC-3
[13] = tested on: NCI/ADR-RES
[14] = tested on: OVCAR-8
[15] = tested on: SF-268
[16] = tested on: SN12C
[17] = tested on: COLO 205
[18] = tested on: SR
[19] = tested on: OVCAR-5
[20] = tested on: U-251
[21] = tested on: EKVX
[22] = tested on: MDA-MB-435
[23] = tested on: M14
[24] = tested on: ACHN
[25] = tested on: SNB-19
[26] = tested on: A498
[27] = tested on: UO-31
[28] = tested on: HT-29
[29] = tested on: LOX IMVI
[30] = tested on: OVCAR-3
[31] = tested on: SW-620
[32] = tested on: MDA-N
[33] = tested on: A549
[34] = tested on: IGROV-1
[35] = tested on: MOLT-4
[36] = tested on: SK-MEL-5
[37] = tested on: MCF7
[38] = tested on: HCT-15
[39] = tested on: K562
[40] = tested on: HCT-116
[41] = tested on: MDA-MB-231
[42] = tested on: NCI-H23
[43] = tested on: SK-OV-3
[44] = tested on: Hs-578T
[45] = tested on: SF-295
[46] = tested on: HOP-62
[47] = tested on: KM12
[48] = tested on: UACC-62
[49] = tested on: 786-0
[50] = tested on: HOP-92
[51] = tested on: HCC 2998
[52] = tested on: NCI-H460
[53] = tested on: HL-60
[54] = tested on: SF-539
[55] = tested on: BT-549
[56] = tested on: UACC-257
[57] = tested on: RXF 393
[58] = tested on: CAKI-1

COc1ccc(CNc2nc3cc(N)cc(N)c3nc2-c2ccccc2)cc1
GI50 [1]: 4.13 µM (inactive)

Cc1ccc(/C=C2\NC(=S)N(CN3CCCCC3)C2=O)cc1
GI50 [2]: 69.3 µM (inactive) | GI50 [3]: 12.4 µM (inactive) | GI50 [4]: 36.1 µM (inactive) | GI50 [5]: 85.3 µM (inactive) | GI50 [6]: > 100 µM (inactive) | GI50 [7]: > 100 µM (inactive) | GI50 [8]: 35.8 µM (inactive) | GI50 [9]: 39.4 µM (inactive) | GI50 [10]: 55.7 µM (inactive) | GI50 [11]: 79.3 µM (inactive) | GI50 [12]: 61.4 µM (inactive) | GI50 [13]: 57.7 µM (inactive) | GI50 [14]: 32.5 µM (inactive) | GI50 [15]: 64 µM (inactive) | GI50 [16]: 63.7 µM (inactive) | GI50 [17]: 17 µM (inactive) | GI50 [18]: 83.6 µM (inactive) | GI50 [19]: > 100 µM (inactive) | GI50 [20]: 48.6 µM (inactive) | GI50 [21]: 46.3 µM (inactive) | GI50 [22]: 46.5 µM (inactive) | GI50 [23]: 55.1 µM (inactive) | GI50 [24]: 43.2 µM (inactive) | GI50 [1]: 32.2 µM (inactive) | GI50 [25]: 55.5 µM (inactive) | GI50 [26]: 41.3 µM (inactive) | GI50 [27]: 63.1 µM (inactive) | GI50 [28]: 24.2 µM (inactive) | GI50 [29]: 34.4 µM (inactive) | GI50 [30]: 65.3 µM (inactive) | GI50 [31]: 28.9 µM (inactive) | GI50 [32]: 65.2 µM (inactive) | GI50 [33]: 51.2 µM (inactive) | GI50 [34]: > 100 µM (inactive) | GI50 [35]: 93.3 µM (inactive) | GI50 [36]: 33.3 µM (inactive) | GI50 [37]: 28.4 µM (inactive) | GI50 [38]: 36.1 µM | GI50 [39]: 43 µM (inactive) | GI50 [40]: 36.6 µM (inactive) | GI50 [41]: > 100 µM (inactive) | GI50 [42]: > 100 µM (inactive) | GI50 [43]: > 100 µM (inactive) | GI50 [44]: 41.4 µM (inactive) | GI50 [45]: 44.6 µM (inactive) | GI50 [46]: > 100 µM (inactive) | GI50 [47]: > 100 µM (inactive) | GI50 [48]: 33.3 µM (inactive) | GI50 [49]: 47.3 µM (inactive) | GI50 [50]: 0.416 µM (active)

CC(C)SC(NC(=O)C1C(C)(C)CCC1(C)C)C(=O)O (centres undefined)
GI50 [2]: > 100 µM (inactive) | GI50 [3]: > 100 µM (inactive) | GI50 [4]: > 100 µM (inactive) | GI50 [51]: > 100 µM (inactive) | GI50 [6]: > 100 µM (inactive) | GI50 [7]: > 100 µM (inactive) | GI50 [52]: > 100 µM (inactive) | GI50 [10]: > 100 µM (inactive) | GI50 [11]: > 100 µM (inactive) | GI50 [12]: > 100 µM (inactive) | GI50 [13]: > 100 µM (inactive) | GI50 [14]: > 100 µM (inactive) | GI50 [15]: > 100 µM (inactive) | GI50 [16]: > 100 µM (inactive) | GI50 [17]: > 100 µM (inactive) | GI50 [19]: > 100 µM (inactive) | GI50 [53]: > 100 µM (inactive) | GI50 [20]: > 100 µM (inactive) | GI50 [21]: > 100 µM (inactive) | GI50 [22]: > 100 µM (inactive) | GI50 [23]: > 100 µM (inactive) | GI50 [24]: > 100 µM (inactive) | GI50 [1]: > 100 µM (inactive) | GI50 [25]: > 100 µM (inactive) | GI50 [26]: > 100 µM (inactive) | GI50 [27]: > 100 µM (inactive) | GI50 [29]: > 100 µM (inactive) | GI50 [31]: > 100 µM (inactive) | GI50 [32]: > 100 µM (inactive) | GI50 [33]: > 100 µM (inactive) | GI50 [34]: > 100 µM (inactive) | GI50 [35]: > 10 µM (inactive) | GI50 [36]: > 100 µM (inactive) | GI50 [37]: > 100 µM (inactive) | GI50 [38]: > 100 µM | GI50 [39]: > 100 µM (inactive) | GI50 [40]: > 100 µM (inactive) | GI50 [41]: > 100 µM (inactive) | GI50 [42]: > 100 µM (inactive) | GI50 [43]: > 100 µM (inactive) | GI50 [54]: > 100 µM (inactive) | GI50 [44]: > 100 µM (inactive) | GI50 [46]: > 100 µM (inactive) | GI50 [48]: > 100 µM (inactive) | GI50 [49]: > 100 µM (inactive) | GI50 [50]: > 100 µM (inactive)

CC(C)(C)c1cc(/C=C/C(=O)CC(=O)/C=C/c2cc(C(C)(C)C)c(O)c(C(C)(C)C)c2)cc(C(C)(C)C)c1O
GI50 [2]: > 50 µM (inactive) | GI50 [3]: > 50 µM (inactive) | GI50 [4]: > 50 µM (inactive) | GI50 [6]: > 50 µM (inactive) | GI50 [55]: > 50 µM (inactive) | GI50 [7]: > 50 µM (inactive) | GI50 [8]: > 50 µM (inactive) | GI50 [56]: > 50 µM (inactive) | GI50 [9]: > 50 µM (inactive) | GI50 [52]: > 50 µM (inactive) | GI50 [10]: > 50 µM (inactive) | GI50 [11]: > 50 µM (inactive) | GI50 [12]: > 50 µM (inactive) | GI50 [13]: > 50 µM (inactive) | GI50 [14]: > 50 µM (inactive) | GI50 [15]: > 50 µM (inactive) | GI50 [16]: > 50 µM (inactive) | GI50 [17]: > 50 µM (inactive) | GI50 [19]: > 50 µM (inactive) | GI50 [53]: > 50 µM (inactive) | GI50 [20]: > 50 µM (inactive) | GI50 [21]: > 50 µM (inactive) | GI50 [22]: > 50 µM (inactive) | GI50 [23]: > 50 µM (inactive) | GI50 [24]: > 50 µM (inactive) | GI50 [1]: > 50 µM (inactive) | GI50 [25]: > 50 µM (inactive) | GI50 [27]: > 50 µM (inactive) | GI50 [28]: > 50 µM (inactive) | GI50 [29]: > 50 µM (inactive) | GI50 [30]: > 50 µM (inactive) | GI50 [31]: > 50 µM (inactive) | GI50 [32]: > 50 µM (inactive) | GI50 [33]: > 50 µM (inactive) | GI50 [34]: > 50 µM (inactive) | GI50 [36]: > 50 µM (inactive) | GI50 [37]: > 50 µM (inactive) | GI50 [38]: > 50 µM | GI50 [40]: > 50 µM (inactive) | GI50 [41]: > 50 µM (inactive) | GI50 [42]: > 50 µM (inactive) | GI50 [57]: > 50 µM (inactive) | GI50 [43]: > 50 µM (inactive) | GI50 [54]: > 50 µM (inactive) | GI50 [44]: > 50 µM (inactive) | GI50 [45]: > 50 µM (inactive) | GI50 [46]: > 50 µM (inactive) | GI50 [47]: 28.4 µM (inactive) | GI50 [48]: > 50 µM (inactive) | GI50 [49]: > 50 µM (inactive)

CCCNC(=O)Nc1ccc2c(c1)Cc1cc(N(CCCl)CCCl)ccc1-2
GI50 [2]: 61.9 µM (inactive) | GI50 [3]: 58.3 µM (inactive) | GI50 [4]: 14.6 µM (inactive) | GI50 [5]: 36 µM (inactive) | GI50 [51]: 28.2 µM (inactive) | GI50 [6]: 29.2 µM (inactive) | GI50 [55]: 22 µM (inactive) | GI50 [8]: 17.6 µM (inactive) | GI50 [56]: 41.7 µM (inactive) | GI50 [52]: 7.16 µM (inactive) | GI50 [11]: 11.5 µM (inactive) | GI50 [12]: 25.2 µM (inactive) | GI50 [58]: 22.4 µM (inactive) | GI50 [13]: 36.2 µM (inactive) | GI50 [14]: 26.9 µM (inactive) | GI50 [15]: 21.8 µM (inactive) | GI50 [16]: 33 µM (inactive) | GI50 [17]: 8.32 µM (inactive) | GI50 [18]: 1.32 µM (inactive) | GI50 [19]: 76 µM (inactive) | GI50 [53]: 5.94 µM (inactive) | GI50 [20]: 18 µM (inactive) | GI50 [21]: 18.6 µM (inactive) | GI50 [22]: 21.1 µM (inactive) | GI50 [23]: 79.4 µM (inactive) | GI50 [24]: 5.47 µM (inactive) | GI50 [1]: 25.4 µM (inactive) | GI50 [25]: 19.2 µM (inactive) | GI50 [26]: 10.6 µM (inactive) | GI50 [27]: 17.4 µM (inactive) | GI50 [28]: 3.24 µM (inactive) | GI50 [29]: 12.2 µM (inactive) | GI50 [30]: 22.1 µM (inactive) | GI50 [31]: 28.6 µM (inactive) | GI50 [33]: 23.9 µM (inactive) | GI50 [34]: 14.1 µM (inactive) | GI50 [36]: 13.7 µM (inactive) | GI50 [37]: 8.73 µM (inactive) | GI50 [38]: 16.5 µM | GI50 [39]: 10.9 µM (inactive) | GI50 [40]: 49.9 µM (inactive) | GI50 [41]: 28.4 µM (inactive) | GI50 [42]: 36.1 µM (inactive) | GI50 [57]: 15.5 µM (inactive) | GI50 [54]: 5.53 µM (inactive) | GI50 [44]: 25.6 µM (inactive) | GI50 [45]: 14.2 µM (inactive) | GI50 [46]: 81.5 µM (inactive) | GI50 [47]: 22 µM (inactive) | GI50 [48]: 21.9 µM (inactive) | GI50 [49]: 34.6 µM (inactive) | GI50 [50]: 25.2 µM (inactive)
